Earlier results on 59 compounds are cited in Sander's compilation of Henry's law constants (doi:10.1016/s0016-7037(99)00330-0).

Structures are written as SMILES.

A short description of this data set: Henry solubility constant Hcp at 298.15 K (mol/(m3 Pa)). The settings on record: reference: Plyasunov and Shock (2000); cited value.
For `CCCC(O)CC` (centres undefined) [3-hexanol], the “Henry solubility constant Hcp” value is 0.42.

With `CCC#CCC` [3-hexyne], the “Henry solubility constant Hcp” value was 0.00055.

For the compound `CC(C)CCO` [3-methyl-1-butanol], the “Henry solubility constant Hcp” value is 0.7. On to `C=CC(C)C` [3-methyl-1-butene], for which the “Henry solubility constant Hcp” value is 1.9e-05. As to `CCCCC(C)CC` (centres undefined) [3-methylheptane], the “Henry solubility constant Hcp” value was 2.7e-06. Regarding `CCCC(C)CC` (centres undefined) [3-methylhexane], the “Henry solubility constant Hcp” value is 4.5e-06. Consider `CCC(C)CC` [3-methylpentane], for which the “Henry solubility constant Hcp” value was 5.9e-06. For the compound `CCC(O)CC` [3-pentanol], the “Henry solubility constant Hcp” value was 0.55. Consider `CCCC(O)CCC` [4-heptanol], for which the “Henry solubility constant Hcp” value was 0.34.

Regarding `C=CCC(C)C` [4-methyl-1-pentene], the “Henry solubility constant Hcp” value is 1.5e-05. Turning to `CC(C)CC(C)O` (centres undefined) [4-methyl-2-pentanol], the “Henry solubility constant Hcp” value is 0.35. As to `C=C1CCC2(C(C)C)CC12` (centres undefined) [4-methylene-1-(1-methylethyl)-bicyclo[3.1.0]hexane], the “Henry solubility constant Hcp” value was 0.00015.

Take `CCCCC(C)CCC` (centres undefined) [4-methyloctane]: the “Henry solubility constant Hcp” value was 9.7e-07. For `C=CC(=C)CCC=C(C)C` [7-methyl-3-methylene-1,6-octadiene], the “Henry solubility constant Hcp” value is 0.0004. Consider `CC(C)(C)c1ccccc1` [(1,1-dimethylethyl)-benzene], for which the “Henry solubility constant Hcp” value is 0.00079. For `CCC(C)c1ccccc1` (centres undefined) [(1-methylpropyl)-benzene], the “Henry solubility constant Hcp” value is 0.00053. Take `CC(C)Cc1ccccc1` [(2-methylpropyl)-benzene]: the “Henry solubility constant Hcp” value is 0.00029. As to `CC(C)c1ccccc1` [(2-propyl)-benzene], the “Henry solubility constant Hcp” value was 0.00084. Regarding `c1ccccc1` [benzene], the “Henry solubility constant Hcp” value is 0.0018. On to `CCCC` [butane], for which the “Henry solubility constant Hcp” value is 1.2e-05. As to `CCCCc1ccccc1` [butylbenzene], the “Henry solubility constant Hcp” value was 0.00071. On to `C[C@@H]1CCCC[C@@H]1C` [cis-1,2-dimethylcyclohexane], for which the “Henry solubility constant Hcp” value was 2.8e-05. Turning to `C1CCCCCC1` [cycloheptane], the “Henry solubility constant Hcp” value is 0.0001. With `OC1CCCCCC1` [cycloheptanol], the “Henry solubility constant Hcp” value is 4.6. With `C1=CCCCCC1` [cycloheptene], the “Henry solubility constant Hcp” value was 0.0002. Take `C1CCCCC1` [cyclohexane]: the “Henry solubility constant Hcp” value was 5.3e-05.

For `C1=CCCCC1` [cyclohexene], the “Henry solubility constant Hcp” value was 0.00022.

Regarding `C1CCCCCCC1` [cyclooctane], the “Henry solubility constant Hcp” value was 9.3e-05. With `C1CCCC1` [cyclopentane], the “Henry solubility constant Hcp” value is 5.5e-05. As to `OC1CCCC1` [cyclopentanol], the “Henry solubility constant Hcp” value is 4.2.

Turning to `C1=CCCC1` [cyclopentene], the “Henry solubility constant Hcp” value is 0.00016. In the case of `C1CC1` [cyclopropane], the “Henry solubility constant Hcp” value was 0.00012. Turning to `CCCCCCCCCC` [decane], the “Henry solubility constant Hcp” value was 1.1e-06. On to `CCCCCCCCCCc1ccccc1` [decylbenzene], for which the “Henry solubility constant Hcp” value is 8.6e-05. With `CC(C)(C)C` [dimethylpropane], the “Henry solubility constant Hcp” value was 6e-06. For `CCCCCCCCCCCC` [dodecane], the “Henry solubility constant Hcp” value was 1.2e-06. `CCO` [ethanol]: the “Henry solubility constant Hcp” value is 1.9. Regarding `C=C` [ethene], the “Henry solubility constant Hcp” value is 4.8e-05.

Consider `C=Cc1ccccc1` [ethenylbenzene], for which the “Henry solubility constant Hcp” value is 0.0029. With `CCc1ccccc1` [ethylbenzene], the “Henry solubility constant Hcp” value was 0.0013. On to `C#C` [ethyne], for which the “Henry solubility constant Hcp” value is 0.00041. On to `CCCCCCC` [heptane], for which the “Henry solubility constant Hcp” value was 4.9e-06. On to `CCCCCC` [hexane], for which the “Henry solubility constant Hcp” value was 6.9e-06. For `CCCCCCc1ccccc1` [hexylbenzene], the “Henry solubility constant Hcp” value was 0.0004. Consider `Cc1ccccc1` [methylbenzene], for which the “Henry solubility constant Hcp” value was 0.0016. Consider `CC1CCCCC1` [methylcyclohexane], for which the “Henry solubility constant Hcp” value was 2.4e-05. As to `CC1CCCC1` [methylcyclopentane], the “Henry solubility constant Hcp” value is 2.8e-05. In the case of `CCCCCCCCC` [nonane], the “Henry solubility constant Hcp” value was 2.1e-06. For `CCCCCCCC` [octane], the “Henry solubility constant Hcp” value is 4e-06. Take `CCCCC` [pentane]: the “Henry solubility constant Hcp” value is 8.7e-06.

Consider `CCCCCc1ccccc1` [pentylbenzene], for which the “Henry solubility constant Hcp” value was 0.00051. Take `CCCCCC1CCCC1` [pentylcyclopentane]: the “Henry solubility constant Hcp” value is 5.3e-06. For the compound `C=CC` [propene], the “Henry solubility constant Hcp” value was 5.6e-05. Turning to `CCCc1ccccc1` [propylbenzene], the “Henry solubility constant Hcp” value is 0.00091. Regarding `C#CC` [propyne], the “Henry solubility constant Hcp” value is 0.00075. For `CCCCCCCCCCCCCC` [tetradecane], the “Henry solubility constant Hcp” value is 9.3e-07. As for `C[C@H]1CC[C@H](C)CC1` [trans-1,4-dimethylcyclohexane], the “Henry solubility constant Hcp” value was 1.1e-05. Turning to `CC1(C)C2CC3C(C2)C31C` [tricyclene], the “Henry solubility constant Hcp” value is 4.9e-05. In the case of `CC1=CCC(C(C)C)C=C1` (stereo not drawn) [α-phellandrene], the “Henry solubility constant Hcp” value is 0.00018.
